According to US6632833B1, “2-(2-methylphenyl)-3,4-dihydro-2H-pyrrole derivatives” (Bayer Aktiengesellschaft, priority 1998, dated 2003):
Like-named read-outs stand apart in the source and are kept apart here.

Key:
[1] = test system: caterpillars of the cotton bollworm (Heliothis armigera); assay: Heliothis armigera test; format: in vivo; settings: concentration of active compound 0.004%; after 6 days; dipped soybean shoots
Procedure: (§1) To produce a suitable preparation of active compound, 1 part by weight of active compound is mixed with the stated amounts of solvent and emulsifier, and the concentrate is diluted with emusifier-containing water to the desired concentration.
Soybean shoots (Glycine max) are treated by being dipped into the preparation of active compound of the desired concentration and are populated with caterpillars of the cotton bollworm (Heliothis armigera) while the leaves are still moist.
(§2) After the desired period of time, the kill in % is determined. 100% means that all caterpillars have been killed; 0% means that none of the caterpillars have been killed.

[2] = test system: larvae of the mustard beetle (Phaedon cochleariae); assay: Phaedon larvae test; format: in vivo; settings: dipped cabbage leaves
Procedure: Phaedon larvae test [table] To produce a suitable preparation of active compound, 1 part by weight of active compound is mixed with the stated amounts of solvent and emulsifier, and the concentrate is diluted with emusifier-containing water to the desired concentration. Cabbage leaves (Brassica oleracea) are treated by being dipped into the preparation of active compound of the desired concentration and are populated with larvae of the mustard beetle (Phaedon cochleariae) while the leaves are still moist.

[3] = test system: caterpillars of the diamond-back moth (Plutella xylostella); assay: Plutella test; format: in vivo; settings: concentration of active compound 0.004%; after 6 days; dipped cabbage leaves
Procedure: as §1
Cabbage leaves (Brassica oleracea) are treated by being dipped into the preparation of active compound of the desired concentration and are populated with caterpillars of the diamond-back moth (Plutella xylostella) while the leaves are still moist.
as §2

[4] = test system: caterpillars of the army-worm (Spodoptera frugiperda); assay: Spodoptera frugiperda test; format: in vivo; settings: dipped cabbage leaves
Procedure: Spodoptera frugiperda test
as §1
Cabbage leaves (Brassica oleracea) are treated by being dipped into the preparation of active compound of the desired concentration and are populated with caterpillars of the army-worm (Spodoptera frugiperda) while the leaves are still moist.
as §2

[5] = test system: all stages of the greenhouse red spider mite (Tetranychus urticae); assay: Tetranychus test (OP-resistant/dip treatment); format: in vivo; settings: after 7 days, dipped bean plants
Procedure: Tetranychus test (OP-resistant/dip treatment)
To produce a suitable preparation of active compound, 1 part by weight of active compound is mixed with the stated amounts of solvent and emulsifier, and the concentrate is diluted with emulsifier-containing water to the desired concentration.
Bean plants (Phaseolus vulgaris) which are heavily infested by all stages of the greenhouse red spider mite (Tetranychus urticae) are dipped into a preparation of the active compound of the desired concentration.
After the desired period of time, the action in % is determined. 100% means that all spider mites have been killed; 0% means that none of the spider mites have been killed.

[6] = HPLC log P determination; format: physicochemical; settings: alkane/water partition, estimated by HPLC retention
Procedure: * log P=[…] logarithm to base 10 of the alkane/water partition coefficient, determined by HPLC analysis using water/acetonitrile as mobile phase on 125×4.0 mm Kromasil […] (5 μm); flow rate: 1.5 ml/min.

[7] = concentration of active compound 0.004%, after 6 days
[8] = concentration of active compound 0.01%, after 7 days
[9] = pH 2.3, read-out: HPLC log P (pH 2.3)

Cc1ccccc1C1=NC(c2ccc(-c3ccc(OC(F)(F)F)cc3)cc2)CC1 (stereo not drawn) [Example I-9]
kill in % [1]: 100% | kill in % [2, 7]: 100% | kill in % [3]: 100% | kill in % [4, 7]: 100% | kill (action in %) ([5]; concentration of active compound 0.004%): 98% | chromatographic logP ([6]; neutral, HPLC, water/acetonitrile mobile phase, read-out: HPLC log P (neutral)): 6.05

Cc1ccccc1C1=NC(c2ccc(-c3ccc(OC(F)(F)C(F)F)cc3)cc2)CC1 (stereo not drawn) [Example I-43]
kill in % [2, 8]: 100% | kill in % [4, 8]: 100% | kill (action in %) ([5]; concentration of active compound 0.01%): 100% | chromatographic logP [6, 9]: 3.02

Cc1ccccc1C(=O)CCC(NC(=O)OC(C)(C)C)c1ccc(-c2ccc(OC(F)(F)C(F)F)cc2)cc1 (stereo not drawn) [Example VIII-43]
chromatographic logP [6, 9]: 5.05

O=C1CCC(c2ccc(-c3ccc(OC(F)(F)C(F)F)cc3)cc2)N1 (stereo not drawn) [Example XI-43]
chromatographic logP ([6]; pH 2-3, read-out: HPLC log P (pH 2-3)): 2.79
